This assay has as its target P. falciparum apicoplast DNA polymerase (Pf-apPOL) (Plasmodium falciparum, UniProt Q8ILY1). Briefly: Fluorescence-based high-throughput DNA polymerase assay (molecular beacon), primary screen and dose-response. Format: biochemical. Conditions: for DNA Pol: 90 min, 10 µM; for IC50: supplemental file 2, sheet IC50 nontoxic compounds, Pf-apPOL. As to the method: The HT assay employs a molecular beacon, a stem-loop DNA template with a Cy3 dye and the Black Hole Quencher on the 3′ and 5′ ends of the DNA, respectively. Pf-apPOL concentration is based on a calculated absorptivity of ε280 = 56750 M^−1 cm^−1. Reactions were carried out at 25 °C, using Corning 3575 […] (well-volume, 20 µL). Assays testing for compound inhibition composed of reaction buffer (pH 7.9 in 50 mM potassium acetate, 20 mM Tris-acetate and 10 mM magnesium acetate), Pf-apPOL (20 nM), DNA substrate (20 nM), dNTPs (6 µM), and compound (10 µM in DMSO). The DNA and nucleotide substrates (dNTPs) were at concentrations of 20 nM and 6 µM, respectively, in the assay. Pf-apPOL was incubated in the reaction buffer with dNTPs and the compound of interest (10 µM, in the assay) at 25 °C for 10 min. The DNA substrate was then added and the reaction was allowed to proceed for 90 min at 25 °C.
Each assay plate contained 16 negative controls (no Pf-apPOL, DMSO present) and 16 positive controls (Pf-apPOL present, no DMSO). The fluorescence of each well was determined using a BioTek Synergy Neo fluorescence plate reader using excitation and emission wavelengths of 555 and 570 nm, respectively.
In the above, Min is the average of fluorescence emission of the negative controls (substrate only), Max the average fluorescence emission from the positive controls (enzyme + substrate), and Test the emission from the assays in the presence of compounds (enzyme + compound + substrates). […] […] The IC50 of each compound was determined using Equation (2): (2) IC50= Vmax/(1+ (I/IC50)^n)
In the above, n measures cooperativity, with n > 1 indicating synergistic binding of more than a single molecule of the compound.
To identify apPOL inhibitors we utilised our previously developed high-throughput DNA polymerase assay. The HT assay is based on a molecular beacon DNA template that forms a stem-loop with a Cy3 dye and the Black Hole Quencher on the 3′ and 5′ ends of the DNA, respectively. DNA polymerase activity extends an annealed primer through the stem region, displacing the fluorophore from the quencher, thereby increasing its fluorescence (Figure 1(A)). The assay accurately recapitulates the kinetic behaviour of apPOL, as measured through more conventional low-throughput gel-based assays. The Z′ factor for the assay described here was 0.9 across all plates (data not shown).
Figure 1. High-throughput screening. (A) The fluorescent-based DNA polymerase assay used to screen the compound libraries. The DNA template strand is a hairpin loop with a primer annealed to the loop. The 3’ end of the primer is 11 bases away from the 6 bp duplex. Strand displacement activity of the DNA polymerase separates the Cy3 dye from the Black hole quencher leading to an increase in fluorescent signal. (B) The high-throughput assay workflow. The DNA polymerase is incubated with […] compound for 10 min prior to addition of the hairpin substrate. The reaction is quenched at 3 different time points and the fluorescent signal is measured and % inhibition is determined using the provided equation.

Some results are limits rather than exact numbers.

The source of these data is PMC9090415, “Discovery of small molecule inhibitors of Plasmodium falciparum apicoplast DNA polymerase” (Journal of Enzyme Inhibition and Medicinal Chemistry, 2022).

Sequence of P. falciparum apicoplast DNA polymerase (Pf-apPOL) (Q8ILY1 entry or part of it): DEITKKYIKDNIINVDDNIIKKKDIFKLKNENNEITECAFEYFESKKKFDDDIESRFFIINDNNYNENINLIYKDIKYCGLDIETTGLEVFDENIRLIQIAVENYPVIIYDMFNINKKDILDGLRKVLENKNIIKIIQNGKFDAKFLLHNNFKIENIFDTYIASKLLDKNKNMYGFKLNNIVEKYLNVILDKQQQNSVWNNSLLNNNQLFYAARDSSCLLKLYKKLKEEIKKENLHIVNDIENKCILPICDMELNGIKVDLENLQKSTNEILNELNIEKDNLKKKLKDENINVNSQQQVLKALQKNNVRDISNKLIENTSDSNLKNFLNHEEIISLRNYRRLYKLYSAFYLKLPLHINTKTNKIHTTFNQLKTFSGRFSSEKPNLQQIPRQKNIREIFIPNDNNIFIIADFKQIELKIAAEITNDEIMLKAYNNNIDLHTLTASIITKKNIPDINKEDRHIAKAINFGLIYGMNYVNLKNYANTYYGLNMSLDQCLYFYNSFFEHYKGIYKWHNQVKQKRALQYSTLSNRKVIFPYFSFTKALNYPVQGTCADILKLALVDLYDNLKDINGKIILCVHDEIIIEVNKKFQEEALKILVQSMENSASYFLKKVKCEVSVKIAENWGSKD

As to `Cc1cc(C)cc(-n2nc3c(c2NC(=O)c2ccco2)CSC3)c1` [KU0055926], the “% inhibition Apo pol 10'” value is given as 8.0326% (DRC-1, concentration 2.5); 29.0516% (DRC-1, concentration 5); 59.7607% (DRC-1, concentration 10); 82.6519% (DRC-1, concentration 20); 88.4046% (DRC-1, concentration 40); 87.3935% (DRC-1, concentration 80). Besides, the “% inhibition Apol 90'” value runs as follows: (DRC-1, concentration 2.5) -0.9298%; (DRC-1, concentration 5) 15.258%; (DRC-1, concentration 10) 43.5557%; (DRC-1, concentration 20) 72.7845%; (DRC-1, concentration 40) 86.0941%; (DRC-1, concentration 80) 88.1488%. The “% inhibition apPOL 180'” value is, setting by setting: (DRC-1, concentration 2.5) -5.803%; (DRC-1, concentration 5) 4.111%; (DRC-1, concentration 10) 27.2882%; (DRC-1, concentration 20) 60.1388%; (DRC-1, concentration 40) 79.5226%; (DRC-1, concentration 80) 84.9587%. Besides, the “% inhibition apPOL 180'” value by setting is: (DRC-2, concentration 2.5) 6.36%; (DRC-2, concentration 5) 13%; (DRC-2, concentration 10) 27%; (DRC-2, concentration 20) 53%; (DRC-2, concentration 40) 68%; (DRC-2, concentration 80) 74%. The “% inhibition apPOL 180'” value (conc. 80, DRC-2) came out at 74%. Besides, the “% inhibition Apo pol 5'” value runs as follows: (DRC-2, concentration 2.5) 11%; (DRC-2, concentration 5) 21%; (DRC-2, concentration 10) 38%; (DRC-2, concentration 20) 50%; (DRC-2, concentration 40) 54%; (DRC-2, concentration 80) 54%. Besides, the “% inhibition Apo pol 5'” value runs as follows: (conc. 5, DRC-2) 21%; (conc. 10, DRC-2) 38%; (conc. 40, DRC-2) 54%; (conc. 80, DRC-2) 54%. For the same compound, the “% inhibition Apol 40'” value runs as follows: (DRC-2, concentration 2.5) 12%; (DRC-2, concentration 5) 24%; (DRC-2, concentration 10) 41%; (DRC-2, concentration 20) 60%; (DRC-2, concentration 40) 69%; (DRC-2, concentration 80) 71%. The “% inhibition Apol 40'” value amounted to 60% (conc. 20, DRC-2) and 71% (conc. 80, DRC-2). The “% inhibition ApPOL 90'” value reads like this: (DRC-2, concentration 2.5) 10%; (DRC-2, concentration 5) 21%; (DRC-2, concentration 10) 38%; (DRC-2, concentration 20) 60%; (DRC-2, concentration 40) 71%; (DRC-2, concentration 80) 74%. Besides, the “% inhibition ApPOL 90'” value by setting is: (conc. 5, DRC-2) 21%; (conc. 10, DRC-2) 38%; (conc. 20, DRC-2) 60%; (conc. 40, DRC-2) 71%; (conc. 80, DRC-2) 74%. For the same compound, the “DNA Pol” value was found to be 58 (primary screen value by plate and well); 58 (primary screen value of the 186 hits, unit not given).
For the compound `COc1ccccc1C1CC(=O)Oc2cc3c(cc21)OCO3` (stereo not shown) [KU0104502], the “DNA Pol” value runs as follows: ('DNA Pol' of the 186 hits list (screen value)) 42; (primary screen value, "DNA Pol") 42. Moreover, the “% inhibition Apo pol 10'” value turned out to be 16.5835% (DRC-1, conc 2.5); 35.5684% (DRC-1, conc 5); 61.1126% (DRC-1, conc 10); 76.0203% (DRC-1, conc 20); 89.9974% (DRC-1, conc 40); 93.475% (DRC-1, conc 80). Moreover, the “% inhibition Apol 90'” value is, setting by setting: (DRC-1, conc 2.5) 2.531%; (DRC-1, conc 5) 13.2862%; (DRC-1, conc 10) 34.6587%; (DRC-1, conc 20) 54.2638%; (DRC-1, conc 40) 81.0345%; (DRC-1, conc 80) 93.8969%. Also, the “% inhibition apPOL 180'” value runs as follows: (DRC-1, conc 2.5) -4.384%; (DRC-1, conc 5) 1.7201%; (DRC-1, conc 10) 18.8078%; (DRC-1, conc 20) 38.0211%; (DRC-1, conc 40) 74.6782%; (DRC-1, conc 80) 93.9211%. Also, the “% inhibition apPOL 180'” value by setting is: (DRC-2, conc 2.5) -2.17%; (DRC-2, conc 5) 12%; (DRC-2, conc 10) 31%; (DRC-2, conc 20) 53%; (DRC-2, conc 40) 78%; (DRC-2, conc 80) 85%. Also, the “% inhibition Apo pol 5'” value by setting is: (DRC-2, conc 2.5) 10%; (DRC-2, conc 5) 34%; (DRC-2, conc 10) 50%; (DRC-2, conc 20) 59%; (DRC-2, conc 40) 65%; (DRC-2, conc 80) 66%. Besides, the “% inhibition Apol 40'” value is, setting by setting: (DRC-2, conc 2.5) 4.3%; (DRC-2, conc 5) 27%; (DRC-2, conc 10) 47%; (DRC-2, conc 20) 62%; (DRC-2, conc 40) 75%; (DRC-2, conc 80) 80%. Also, the “% inhibition ApPOL 90'” value by setting is: (DRC-2, conc 2.5) 1.26%; (DRC-2, conc 5) 23%; (DRC-2, conc 10) 42%; (DRC-2, conc 20) 60%; (DRC-2, conc 40) 77%; (DRC-2, conc 80) 82%.
As to `O=C(c1ccccc1)N1CCc2c(nc3cc(-c4ccccc4)[nH]n3c2=O)C1` [Molecule 30], the IC50 (in general, the concentration that gives 50% inhibition) is 9.54 µM.
`Cc1cc(C)c2c(O)nc(SCC(=O)c3ccc(O)c(O)c3)nc2n1` [Molecule 88]: the IC50 is under 2.5 µM.
As for `O=C1N=C(Nc2cccc(Cl)c2Cl)S/C1=C\c1ccco1` [Molecule 3], the IC50 was 4.99 µM.
